Patent US6737383B1, “Herbicidal oxadiazolidines” (priority 1999, dated 2004)

Key:
rape = test: Test B pre/postemergence rape; format: in vivo, Brassica napus
In short: (§1)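 Response is a visual 0-to-10 score relative to untreated plants, where 0 means no effect and 10 means complete control, taken twelve to sixteen days after application. Treatments went onto soil at planting and onto foliage of 1- to 4-leaf plants, using a surfactant-containing non-phytotoxic solvent.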

duck salad = test: Test B flood test duck salad; format: in vivo, Heteranthera limosa
In short: (§2)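 Plants were grown to the 2-leaf stage before treatment with test chemical, then held in a greenhouse for twelve to sixteen days. Injury was visually rated against untreated controls on a 0–10 scale, where 0 is no effect and 10 is complete control.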

cocklebur = test: Test B pre/postemergence cocklebur; format: in vivo, Xanthium strumarium
In short: as §1

surinam grass = test: Test B pre/postemergence surinam grass; format: in vivo, Brachiaria decumbens
In short: as §1

rice = test: Test B flood test rice; format: in vivo, Oryza sativa
In short: as §2

blackgrass = test: Test B pre/postemergence blackgrass; format: in vivo, Alopecurus myosuroides
In short: as §1

bedstraw = test: Test B pre/postemergence bedstraw; format: in vivo, Galium aparine
In short: as §1

soybean = test: Test B pre/postemergence soybean; format: in vivo, Glycine max; details: Preemergence
In short: as §1

bamyardgrass = test: Test B flood test barnyardgrass; format: in vivo, Echinochloa crus-galli
In short: as §2

velvetleaf = test: Test B pre/postemergence velvetleaf; format: in vivo, Abutilon theophrasti; details: Preemergence
In short: as §1

wild oat = test: Test B pre/postemergence wild oat; format: in vivo, Avena fatua; details: Preemergence
In short: as §1

wheat = test: Test B pre/postemergence wheat; format: in vivo, Triticum aestivum; details: Preemergence
In short: as §1

corn = test: Test B pre/postemergence corn; format: in vivo, Zea mays
In short: as §1

giant foxtail = test: Test B pre/postemergence giant foxtail; format: in vivo, Setaria faberii
In short: as §1

crabgrass = test: Test B pre/postemergence crabgrass; format: in vivo, Digitaria sanguinalis
In short: as §1

morningglory = test: Test B pre/postemergence morningglory; format: in vivo, Ipomoea hederacea
In short: as §1

smallflower flatsedge = test: Test B flood test smallflower flatsedge; format: in vivo, Cyperus difformis
In short: as §2

purple nutsedge = test: Test B pre/postemergence purple nutsedge; format: in vivo, Cyperus rotundus
In short: as §1

pigweed = test: Test B pre/postemergence pigweed; format: in vivo, Amaranthus retroflexus
In short: as §1

sugar beet = test: Test B pre/postemergence sugar beet; format: in vivo, Beta vulgaris; details: Preemergence
In short: as §1

[1] = Preemergence, Rate 31 g/ha, visual rating, scale 0 to 10 (0 no effect, 10 complete control)
[2] = Preemergence, Rate 62 g/ha, scale of 0 to 10 where 0 is no effect and 10 is complete control
[3] = Preemergence, Rate 250 g/ha, scale of 0 to 10 where 0 is no effect and 10 is complete control
[4] = Rate 31 g/ha, Postemergence, scale 0 to 10
[5] = Rate 125 g/ha, Preemergence, scale of 0 to 10 where 0 is no effect and 10 is complete control
[6] = Rate 62 g/ha, headed Pre-emergence (flood test species), scale 0 to 10 (0 no effect, 10 complete control)
[7] = Rate 125 g/ha, Pre-emergence, flood test species, scale 0 to 10 where 0 is no effect and 10 is complete control
[8] = Rate 250 g/ha, Pre-emergence, flood-test species, scale 0 to 10, 0 is no effect, 10 is complete control
[9] = Rate 500 g/ha, Pre-emergence, flood test species, scale 0 to 10 (0 no effect, 10 complete control)
[10] = Rate 62 g/ha, Postemergence, scale of 0 to 10 where 0 is no effect and 10 is complete control
[11] = Rate 125 g/ha, Postemergence, scale 0 to 10
[12] = Rate 31 g/ha, visual rating, scale 0 to 10 (0 no effect, 10 complete control)
[13] = Rate 62 g/ha, scale of 0 to 10 where 0 is no effect and 10 is complete control
[14] = Rate 250 g/ha, scale of 0 to 10 where 0 is no effect and 10 is complete control
[15] = Rate 125 g/ha, scale of 0 to 10 where 0 is no effect and 10 is complete control

For CCN(CC)C(=O)Cn1c(=O)on(C(=O)N(c2ccc(F)cc2)C(C)C)c1=O [Compound 264], the “Rape plant response rating” value (rape; [1]) was 0, the “Rape plant response rating” value (rape; [2]) was 0 and the “Rape plant response rating” value (rape; [3]) was 0. The “Rape plant response rating” value (rape; [4]) was 0, the “Rape plant response rating” value (rape; [5]) was 0 and the “Plant response rating (0 to 10; 0 is no effect, 10 is complete control), Rape” value (rape; Rate 250 g/ha, Postemergence) was 0. The “Ducksalad plant response rating” value (duck salad; [6]) was 0, the “Ducksalad plant response rating” value (duck salad; [7]) was 0 and the “Ducksalad plant response rating” value (duck salad; [8]) was 0. For the same compound, the “Ducksalad plant response rating” value (duck salad; [9]) was 0, the “Cocklebur plant response rating” value (cocklebur; [1]) was 0 and the “Cocklebur plant response rating” value (cocklebur; [2]) was 0. For the same compound, the “Cocklebur plant response rating” value (cocklebur; [3]) was 0, the “Cocklebur plant response rating” value (cocklebur; [4]) was 0 and the “Cocklebur plant response rating” value (cocklebur; [10]) was 0. For the same compound, the “Cocklebur plant response rating” value (cocklebur; [11]) was 0, the “Cocklebur plant response rating” value (cocklebur; [5]) was 0 and the “Plant response rating (0 to 10; 0 is no effect, 10 is complete control), Cocklebur” value (cocklebur; Rate 250 g/ha, Postemergence) was 0. The “B. signalgrass plant response rating” value (surinam grass; [1]) was 0, the “B. signalgrass plant response rating” value (surinam grass; [2]) was 0 and the “B. signalgrass plant response rating” value (surinam grass; [3]) was 5. The “B. signalgrass plant response rating” value (surinam grass; [4]) was 0, the “B. signalgrass plant response rating” value (surinam grass; [10]) was 0 and the “B. signalgrass plant response rating” value (surinam grass; Rate 125 g/ha, Postemergence, scale 0 (no effect) to 10 (complete control)) was 0. For the same compound, the “B. signalgrass plant response rating” value (surinam grass; [5]) was 0, the “Plant response rating (0 to 10; 0 is no effect, 10 is complete control), B. signalgrass” value (surinam grass; Rate 250 g/ha, Postemergence) was 0 and the “Rice plant response rating” value (rice; [6]) was 0. The “Rice plant response rating” value (rice; [7]) was 0, the “Rice plant response rating” value (rice; [8]) was 0 and the “Rice plant response rating” value (rice; [9]) was 1. For the same compound, the “Blackgrass plant response rating” value (blackgrass; [1]) was 0, the “Blackgrass plant response rating” value (blackgrass; [2]) was 0 and the “Blackgrass plant response rating” value (blackgrass; [3]) was 4. For the same compound, the “Blackgrass plant response rating” value (blackgrass; [4]) was 0, the “Blackgrass plant response rating” value (blackgrass; [10]) was 2 and the “Blackgrass plant response rating” value (blackgrass; [11]) was 2. For the same compound, the “Blackgrass plant response rating” value (blackgrass; [5]) was 0, the “Plant response rating (0 to 10; 0 is no effect, 10 is complete control), Blackgrass” value (blackgrass; Rate 250 g/ha, Postemergence) was 3 and the “Bedstraw plant response rating” value (bedstraw; [1]) was 0. For the same compound, the “Bedstraw plant response rating” value (bedstraw; [2]) was 0, the “Bedstraw plant response rating” value (bedstraw; [3]) was 0 and the “Bedstraw plant response rating” value (bedstraw; [4]) was 0. The “Bedstraw plant response rating” value (bedstraw; [10]) was 0, the “Bedstraw plant response rating” value (bedstraw; [11]) was 6 and the “Bedstraw plant response rating” value (bedstraw; [5]) was 0. The “Plant response rating (0 to 10; 0 is no effect, 10 is complete control), Bedstraw” value (bedstraw; Rate 250 g/ha, Postemergence) was 6, the “Soybean plant response rating” value (soybean; [12]) was 0 and the “Soybean plant response rating” value (soybean; [13]) was 0. For the same compound, the “Soybean plant response rating” value (soybean; [14]) was 3, the “Soybean plant response rating” value (soybean; [15]) was 0 and the “Barnyardgrass plant response rating” value (bamyardgrass; [6]) was 0. For the same compound, the “Barnyardgrass plant response rating” value (bamyardgrass; [7]) was 0, the “Barnyardgrass plant response rating” value (bamyardgrass; [8]) was 0 and the “Barnyardgrass plant response rating” value (bamyardgrass; [9]) was 0. For the same compound, the “Velvetleaf plant response rating” value (velvetleaf; [12]) was 0, the “Velvetleaf plant response rating” value (velvetleaf; [13]) was 0 and the “Velvetleaf plant response rating” value (velvetleaf; [14]) was 0. For the same compound, the “Velvetleaf plant response rating” value (velvetleaf; [15]) was 0, the “Wild oats plant response rating” value (wild oat; [12]) was 0 and the “Wild oats plant response rating” value (wild oat; [13]) was 2. For the same compound, the “Wild oats plant response rating” value (wild oat; [14]) was 5, the “Wild oats plant response rating” value (wild oat; [15]) was 4 and the “Wheat plant response rating” value (wheat; [12]) was 0. For the same compound, the “Wheat plant response rating” value (wheat; [13]) was 0, the “Wheat plant response rating” value (wheat; [14]) was 2 and the “Wheat plant response rating” value (wheat; [15]) was 0. For the same compound, the “Corn plant response rating” value (corn; [1]) was 0, the “Corn plant response rating” value (corn; [2]) was 0 and the “Corn plant response rating” value (corn; [3]) was 0. The “Corn plant response rating” value (corn; [4]) was 0, the “Corn plant response rating” value (corn; [10]) was 0 and the “Corn plant response rating” value (corn; [11]) was 0. For the same compound, the “Corn plant response rating” value (corn; [5]) was 0, the “Plant response rating (0 to 10; 0 is no effect, 10 is complete control), Corn” value (corn; Rate 250 g/ha, Postemergence) was 0 and the “Giant foxtail plant response rating” value (giant foxtail; [1]) was 0. For the same compound, the “Giant foxtail plant response rating” value (giant foxtail; [2]) was 2, the “Giant foxtail plant response rating” value (giant foxtail; [3]) was 7 and the “Giant foxtail plant response rating” value (giant foxtail; [4]) was 0. For the same compound, the “Giant foxtail plant response rating” value (giant foxtail; [5]) was 7, the “Plant response rating (0 to 10; 0 is no effect, 10 is complete control), Giant foxtail” value (giant foxtail; Rate 250 g/ha, Postemergence) was 0 and the “Crabgrass plant response rating” value (crabgrass; [1]) was 0. For the same compound, the “Crabgrass plant response rating” value (crabgrass; [2]) was 0, the “Crabgrass plant response rating” value (crabgrass; [3]) was 3 and the “Crabgrass plant response rating” value (crabgrass; [4]) was 0. For the same compound, the “Crabgrass plant response rating” value (crabgrass; [5]) was 2, the “Plant response rating (0 to 10; 0 is no effect, 10 is complete control), Crabgrass” value (crabgrass; Rate 250 g/ha, Postemergence) was 0 and the “Morningglory plant response rating” value (morningglory; [1]) was 0. The “Morningglory plant response rating” value (morningglory; [2]) was 0, the “Morningglory plant response rating” value (morningglory; [3]) was 0 and the “Morningglory plant response rating” value (morningglory; [4]) was 6. For the same compound, the “Morningglory plant response rating” value (morningglory; [5]) was 0, the “Plant response rating (0 to 10; 0 is no effect, 10 is complete control), Morningglory” value (morningglory; Rate 250 g/ha, Postemergence) was 10 and the “S. Flatsedge plant response rating” value (smallflower flatsedge; [6]) was 0. The “S. Flatsedge plant response rating” value (smallflower flatsedge; [7]) was 0, the “S. Flatsedge plant response rating” value (smallflower flatsedge; [8]) was 0 and the “S. Flatsedge plant response rating” value (smallflower flatsedge; [9]) was 0. For the same compound, the “Nutsedge plant response rating” value (purple nutsedge; [1]) was 0, the “Nutsedge plant response rating” value (purple nutsedge; [3]) was 0 and the “Nutsedge plant response rating” value (purple nutsedge; [4]) was 0. The “Plant response rating (0 to 10; 0 is no effect, 10 is complete control), Nutsedge” value (purple nutsedge; Rate 250 g/ha, Postemergence) was 0, the “Redroot pigweed plant response rating” value (pigweed; [1]) was 0 and the “Redroot pigweed plant response rating” value (pigweed; [2]) was 0. For the same compound, the “Redroot pigweed plant response rating” value (pigweed; [3]) was 0, the “Redroot pigweed plant response rating” value (pigweed; [4]) was 0 and the “Redroot pigweed plant response rating” value (pigweed; [5]) was 0. The “Plant response rating (0 to 10; 0 is no effect, 10 is complete control), Redroot pigweed” value (pigweed; Rate 250 g/ha, Postemergence) was 0, the “Sugarbeets plant response rating” value (sugar beet; [12]) was 0 and the “Sugarbeets plant response rating” value (sugar beet; [13]) was 0. The “Sugarbeets plant response rating” value (sugar beet; [14]) was 1 and the “Sugarbeets plant response rating” value (sugar beet; [15]) was 0.
